BigSolDB 2.1

O=C(NC(Cc1cc(=O)[nH]c2ccccc12)C(=O)O)c1ccc(Cl)cc1 (stereo not given)
solubility (mole fraction)
Conditions | 278.15 K | 283.15 K | 288.15 K | 293.15 K | 298.15 K | 303.15 K | 308.15 K | 313.15 K | 318.15 K
in ethanol | 6.26e-05 | 6.92e-05 | 7.65e-05 | 8.61e-05 | 9.66e-05 | 0.000107 | 0.000118 | 0.000131 | 0.000143
in isopropanol | 2.41e-05 | 3.02e-05 | 3.87e-05 | 4.8e-05 | 5.92e-05 | 7.31e-05 | 8.91e-05 | 0.000107 | 0.000129
in n-propanol | 4.25e-05 | 5.08e-05 | 6e-05 | 7.03e-05 | 8.1e-05 | 9.38e-05 | 0.000107 | 0.000123 | 0.00014
in propylene glycol | 0.000182 | 0.000192 | 0.000207 | 0.000225 | 0.000247 | 0.000269 | 0.000293 | 0.000319 | 0.00035
in water | 3.46e-07 | 4.26e-07 | 5.29e-07 | 6.84e-07 | 8.68e-07 | 1.08e-06 | 1.3e-06 | 1.56e-06 | 1.87e-06
